Columns and labels:
[1] = system: southern crabgrass; test: Test Example 5: herbicidal effect by foliage application, plastic box (Table 20, symbol F); assay type: in vivo, southern crabgrass (Digitaria ciliaris); conditions: foliage application; for effect on southern crabgrass (F): 3 weeks after application
In short: (§1)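 Plants sown in sterilized diluvial soil and grown 14 days in a greenhouse at 25° C to 30° C, then sprayed on the foliage with the compound's emulsion diluted in water to a predetermined herbicide amount. Injury to weeds and crops scored three weeks after application on a visual rating scale.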

[2] = system: late watergrass; test: Test Example 1: herbicidal activity, application before weed generation under submerged conditions (Table 16, symbol A); assay type: in vivo, late watergrass (Echinochloa oryzicola); conditions: for Herbicidal effect on A: late watergrass (grade 0-5): 320 g/ha applied herbicide
In short: (§2)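 Submerged Wagner pots (alluvial soil, 4 cm water) sown with weed seeds and planted with 2.5-leaf rice seedlings; emulsifiable concentrate diluted in water applied to water surface on sowing day. Held in greenhouse at 25-30 °C; injury scored 0-5 by herbicidal rate after three weeks.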

[3] = system: wild oat; test: Test Example 4: herbicidal effect by soil treatment (Table 19, symbol I); assay type: in vivo, wild oat (Avena fatua); conditions: for herbicidal effect rating, I: wild oat: 320 g/ha
In short: (§3)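 Three weeks of greenhouse growth at 25° C. to 30° C. followed a uniform surface spray of water-diluted emulsion at a predetermined herbicide amount. Seeds had been sown beforehand under about 1.5 cm of sterilized diluvial soil. Grading followed criteria set out in an earlier test.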

[4] = system: barnyard grass; test: Test Example 5: herbicidal effect by foliage application, plastic box (Table 20, symbol H); assay type: in vivo, barnyard grass (Echinochloa crus-galli); conditions: foliage application; for effect on barnyard grass (H): 3 weeks after application
In short: as §1

[5] = system: rice flat sedge; test: Test Example 3: herbicidal effect by foliage application, Wagner pot (Table 18, symbol E); assay type: in vivo, rice flat sedge (Cyperus iria); conditions: for herbicidal effect on E (rice flat sedge), rating 0-5: 320 g/ha
In short: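 Plants were sown in alluvial soil held under 0.1–0.5 cm standing water and grown 14 days in a greenhouse at 25–30 °C. An emulsifiable formulation, water-diluted to the set dose, was then sprayed onto the foliage, and effects were scored three weeks later using previously defined criteria.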

[6] = system: Italian ryegrass; test: Test Example 4: herbicidal effect by soil treatment (Table 19, symbol K); assay type: in vivo, Italian ryegrass (Lolium multiflorum); conditions: for herbicidal effect rating, K: Italian ryegrass: 320 g/ha
In short: as §3

[7] = system: green foxtail; test: Test Example 5: herbicidal effect by foliage application, plastic box (Table 20, symbol G); assay type: in vivo, green foxtail (Setaria viridis); conditions: foliage application; for effect on green foxtail (G): 320 g/ha, 3 weeks after application
In short: as §1

[8] = system: velvetleaf; test: Test Example 5: herbicidal effect by foliage application, plastic box (Table 20, symbol M); assay type: in vivo, velvetleaf (Abutilon theophrasti); conditions: foliage application; for effect on velvetleaf (M): 3 weeks after application
In short: as §1

[9] = system: oval-leafed pondweed; test: Test Example 1: herbicidal activity, application before weed generation under submerged conditions (Table 16, symbol C); assay type: in vivo, oval-leafed pondweed (Monochoria vaginalis); conditions: for Herbicidal effect on C: oval-leafed pondweed (grade 0-5): 320 g/ha applied herbicide
In short: as §2

[10] = system: windgrass; test: Test Example 4: herbicidal effect by soil treatment (Table 19, symbol L); assay type: in vivo, windgrass (Apera spica-venti); conditions: for herbicidal effect rating, L: windgrass: 320 g/ha
In short: as §3

[11] = system: Japanese bulrush; test: Test Example 2: herbicidal activity, application during weed generation under submerged conditions (Table 17, symbol B); assay type: in vivo, Japanese bulrush (Schoenoplectus juncoides); conditions: application during weed generation, submerged conditions
In short: (§4)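 Herbicide emulsion, diluted with water to the chosen amount, is applied onto 4 cm floodwater over alluvial soil where the weeds were co-sown and raised at 25–30° C. Application timing: 1–2 leaves. Assessment: three weeks afterwards.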

[12] = system: persian speedwell; test: Test Example 4: herbicidal effect by soil treatment (Table 19, symbol R); assay type: in vivo, Persian speedwell (Veronica persica); conditions: for herbicidal effect rating, R: persian speedwell: 320 g/ha
In short: as §3

[13] = system: persian speedwell; test: Test Example 5: herbicidal effect by foliage application, plastic box (Table 20, symbol R); assay type: in vivo, Persian speedwell (Veronica persica); conditions: foliage application; for effect on persian speedwell (R): 3 weeks after application
In short: as §1

[14] = system: oval-leafed pondweed; test: Test Example 2: herbicidal activity, application during weed generation under submerged conditions (Table 17, symbol C); assay type: in vivo, oval-leafed pondweed (Monochoria vaginalis); conditions: application during weed generation, submerged conditions
In short: as §4

[15] = system: chickweed; test: Test Example 5: herbicidal effect by foliage application, plastic box (Table 20, symbol P); assay type: in vivo, common chickweed (Stellaria media); conditions: foliage application, 320 g/ha, evaluated three weeks after application
In short: as §1

[16] = system: redroot pigweed; test: Test Example 5: herbicidal effect by foliage application, plastic box (Table 20, symbol N); assay type: in vivo, redroot pigweed (Amaranthus retroflexus); conditions: foliage application, 320 g/ha, evaluated three weeks after application
In short: as §1

[17] = 320 g/ha, evaluated three weeks after application
[18] = amount of applied herbicide 320 g/ha
[19] = 246 g/ha, three weeks after application
[20] = amount of applied herbicide 246 g/ha

## CCCCCOc1ccc(-c2sc3ccc(F)cc3c2-c2c(OC(=O)CCC)c(C)nn(C)c2=O)cc1 [2-038]
[1]; 320 g/ha
  effect on southern crabgrass (F): 0 (Herbicidal rate of 5% or less (almost no effect))
[2]
  Herbicidal effect on A: late watergrass (grade 0-5): 3 (Herbicidal rate of 40% or more and less than 70%)
[3]
  herbicidal effect rating, I: wild oat: 0 (Herbicidal rate of 5% or less (almost no effect))
[4]; 320 g/ha
  effect on barnyard grass (H): 0 (Herbicidal rate of 5% or less (almost no effect))
[5]
  herbicidal effect on E (rice flat sedge), rating 0-5: 4 (Herbicidal rate of 70% or more and less than 90%)
[6]
  herbicidal effect rating, K: Italian ryegrass: 0 (Herbicidal rate of 5% or less (almost no effect))
[7]
  effect on green foxtail (G): 1 (Herbicidal rate of 5% or more and less than 20%)
[8]; 320 g/ha
  effect on velvetleaf (M): 4 (Herbicidal rate of 70% or more and less than 90%)
[9]
  Herbicidal effect on C: oval-leafed pondweed (grade 0-5): 0 (Herbicidal rate of 5% or less (almost no effect))
[10]
  herbicidal effect rating, L: windgrass: 0 (Herbicidal rate of 5% or less (almost no effect))
[11]; AAH 320 g/ha
  herbicidal effect rating, B: Japanese bulrush: 0 (Herbicidal rate of 5% or less (almost no effect))
[12]
  herbicidal effect rating, R: persian speedwell: 4 (Herbicidal rate of 70% or more and less than 90%)
[13]; 320 g/ha
  effect on persian speedwell (R): 5 (Herbicidal rate of 90% or more (almost completely withered))
[14]; AAH 320 g/ha
  herbicidal effect rating, C: oval-leafed pondweed: 0 (Herbicidal rate of 5% or less (almost no effect))

## Cc1nn(C)c(=O)c(-c2c(-c3ccc(OC4CCCC4)cc3)sc3ccc(F)cc23)c1O [2-039]
[1]; 320 g/ha
  effect on southern crabgrass (F): 4 (Herbicidal rate of 70% or more and less than 90%)
[2]
  Herbicidal effect on A: late watergrass (grade 0-5): 3 (Herbicidal rate of 40% or more and less than 70%)
[3]
  herbicidal effect rating, I: wild oat: 0 (Herbicidal rate of 5% or less (almost no effect))
[4]; 320 g/ha
  effect on barnyard grass (H): 5 (Herbicidal rate of 90% or more (almost completely withered))
[5]
  herbicidal effect on E (rice flat sedge), rating 0-5: 3 (Herbicidal rate of 40% or more and less than 70%)
[6]
  herbicidal effect rating, K: Italian ryegrass: 0 (Herbicidal rate of 5% or less (almost no effect))
[7]
  effect on green foxtail (G): 5 (Herbicidal rate of 90% or more (almost completely withered))
[8]; 320 g/ha
  effect on velvetleaf (M): 3 (Herbicidal rate of 40% or more and less than 70%)
[9]
  Herbicidal effect on C: oval-leafed pondweed (grade 0-5): 5 (Herbicidal rate of 90% or more (almost completely withered))
[10]
  herbicidal effect rating, L: windgrass: 0 (Herbicidal rate of 5% or less (almost no effect))
[11]; AAH 320 g/ha
  herbicidal effect rating, B: Japanese bulrush: 0 (Herbicidal rate of 5% or less (almost no effect))
[12]
  herbicidal effect rating, R: persian speedwell: 4 (Herbicidal rate of 70% or more and less than 90%)
[13]; 320 g/ha
  effect on persian speedwell (R): 5 (Herbicidal rate of 90% or more (almost completely withered))
[14]; AAH 320 g/ha
  herbicidal effect rating, C: oval-leafed pondweed: 2 (Herbicidal rate of 20% or more and less than 40%)

## CCCC(=O)Oc1c(C)nn(C)c(=O)c1-c1c(-c2ccccc2OC(F)(F)F)sc2ccc(F)cc12 [2-044]
[1]; 320 g/ha
  effect on southern crabgrass (F): 4 (Herbicidal rate of 70% or more and less than 90%)
[2]
  Herbicidal effect on A: late watergrass (grade 0-5): 3 (Herbicidal rate of 40% or more and less than 70%)
[3]
  herbicidal effect rating, I: wild oat: 2 (Herbicidal rate of 20% or more and less than 40%)
[4]; 320 g/ha
  effect on barnyard grass (H): 0 (Herbicidal rate of 5% or less (almost no effect))
[5]
  herbicidal effect on E (rice flat sedge), rating 0-5: 5 (Herbicidal rate of 90% or more (almost completely withered))
[6]
  herbicidal effect rating, K: Italian ryegrass: 0 (Herbicidal rate of 5% or less (almost no effect))
[7]
  effect on green foxtail (G): 5 (Herbicidal rate of 90% or more (almost completely withered))
[8]; 320 g/ha
  effect on velvetleaf (M): 5 (Herbicidal rate of 90% or more (almost completely withered))
[9]
  Herbicidal effect on C: oval-leafed pondweed (grade 0-5): 0 (Herbicidal rate of 5% or less (almost no effect))
[10]
  herbicidal effect rating, L: windgrass: 0 (Herbicidal rate of 5% or less (almost no effect))
[11]; AAH 320 g/ha
  herbicidal effect rating, B: Japanese bulrush: 3 (Herbicidal rate of 40% or more and less than 70%)
[12]
  herbicidal effect rating, R: persian speedwell: 4 (Herbicidal rate of 70% or more and less than 90%)
[13]; 320 g/ha
  effect on persian speedwell (R): 5 (Herbicidal rate of 90% or more (almost completely withered))
[14]; AAH 320 g/ha
  herbicidal effect rating, C: oval-leafed pondweed: 3 (Herbicidal rate of 40% or more and less than 70%)

## CCCCCOc1cccc(-c2sc3ccc(F)cc3c2-c2c(O)c(C)nn(C)c2=O)c1 [2-225]
[1]; [17]
  herbicidal effect on F: southern crabgrass (criteria 0-5): 2 (Herbicidal rate of 20% or more and less than 40%)
[15]
  herbicidal effect on P: chickweed (criteria 0-5): 5 (Herbicidal rate of 90% or more (almost completely withered))
[2]
  Herbicidal effect on A: late watergrass (grade 0-5): 0 (Herbicidal rate of 5% or less (almost no effect))
[3]; [18]
  herbicidal effect on I: wild oat: 0 (Herbicidal rate of 5% or less (almost no effect))
[4]; [17]
  herbicidal effect on H: barnyard grass (criteria 0-5): 3 (Herbicidal rate of 40% or more and less than 70%)
[5]; [18]
  herbicidal effect on E: rice flat sedge: 4 (Herbicidal rate of 70% or more and less than 90%)
[6]; [18]
  herbicidal effect on K: Italian ryegrass: 0 (Herbicidal rate of 5% or less (almost no effect))
[16]
  herbicidal effect on N: redroot pigweed (criteria 0-5): 5 (Herbicidal rate of 90% or more (almost completely withered))
[8]; [17]
  herbicidal effect on M: velvetleaf (criteria 0-5): 5 (Herbicidal rate of 90% or more (almost completely withered))
[9]
  Herbicidal effect on C: oval-leafed pondweed (grade 0-5): 3 (Herbicidal rate of 40% or more and less than 70%)
[10]; [18]
  herbicidal effect on L: windgrass: 0 (Herbicidal rate of 5% or less (almost no effect))
[11]; AAH 320 g/ha
  herbicidal effect rating, B: Japanese bulrush: 3 (Herbicidal rate of 40% or more and less than 70%)
[12]; [18]
  herbicidal effect on R: persian speedwell: 0 (Herbicidal rate of 5% or less (almost no effect))
[13]; [17]
  herbicidal effect on R: persian speedwell (criteria 0-5): 5 (Herbicidal rate of 90% or more (almost completely withered))
[14]; AAH 320 g/ha
  herbicidal effect rating, C: oval-leafed pondweed: 0 (Herbicidal rate of 5% or less (almost no effect))

## CCCC(=O)Oc1c(C)nn(C)c(=O)c1-c1c(-c2ccc(F)cc2OCC)oc2ccc(C)cc12 [9-010]
[1]; [19]
  herbicidal effect on southern crabgrass (F): 3 (Herbicidal rate of 40% or more and less than 70%)
[2]; [20]
  Herbicidal effect, A: late watergrass: 5 (Herbicidal rate of 90% or more (almost completely withered))
[3]; [20]
  I: wild oat, herbicidal effect grade: 0 (Herbicidal rate of 5% or less (almost no effect))
[4]; [19]
  herbicidal effect on barnyard grass (H): 3 (Herbicidal rate of 40% or more and less than 70%)
[5]; [20]
  Herbicidal effect on E (rice flat sedge), foliage application: 4 (Herbicidal rate of 70% or more and less than 90%)
[6]; [20]
  K: Italian ryegrass, herbicidal effect grade: 0 (Herbicidal rate of 5% or less (almost no effect))
[7]; [19]
  herbicidal effect on green foxtail (G): 2 (Herbicidal rate of 20% or more and less than 40%)
[8]; [19]
  herbicidal effect on velvetleaf (M): 4 (Herbicidal rate of 70% or more and less than 90%)
[9]; [20]
  Herbicidal effect, C: oval-leafed pondweed: 3 (Herbicidal rate of 40% or more and less than 70%)
[10]; [20]
  L: windgrass, herbicidal effect grade: 0 (Herbicidal rate of 5% or less (almost no effect))
[11]; AAH 246 g/ha
  herbicidal effect rating, B: Japanese bulrush: 0 (Herbicidal rate of 5% or less (almost no effect))
[12]; [20]
  R: persian speedwell, herbicidal effect grade: 0 (Herbicidal rate of 5% or less (almost no effect))
[13]; [19]
  herbicidal effect on persian speedwell (R): 3 (Herbicidal rate of 40% or more and less than 70%)
[14]; AAH 246 g/ha
  herbicidal effect rating, C: oval-leafed pondweed: 2 (Herbicidal rate of 20% or more and less than 40%)
